Reference: patent publication US11033535B2, “Oxadiazoles and thiadiazoles as TGF-β inhibitors” (Southern Research Institute, priority 2017, dated 2021)
Like-named read-outs stand apart in the source and are kept apart here.

Assay: Pharmacokinetic evaluation following a single oral and intravenous administration
Assay type: in vivo, CD1 mouse
Conditions: CD1, mouse, plasma; for C0 / AUC(0-inf) / AUC(0-t) / MRT inf / half-life / Vd: Table 4, IV Dose: 1 mg/kg
Method: A NMP stock solution was prepared by adding 1.136 mL of NMP to 5.68 mg of compound no. 42140 with vortexing and sonification, to obtain a solution with a concentration at 5 mg/mL of 42140:01. Next, to prepare an intravenous formulation, 0.100 mL of the 5 mg/mL stock solution was placed in a new vial. 0.100 mL of NMP and 0.400 mL of PEG400 were added with vortexing and sonification, followed by addition of 0.400 mL of saline with vortexing and sonification. […] 42140:01. Alternatively, to prepare an oral formulation, 0.200 mL of the 5 mg/mL stock solution was placed in a new vial. 0.400 mL of PEG400 was added with vortexing and sonification, followed by addition of 0.400 mL of saline with vortexing and sonifiction. […] 42140:01.
(§1) Briefly, the desired serial concentrations of working solutions were achieved by diluting a stock solution of the compound with 100% acetonitrile. 3 μL of working solutions (5, 10, 20, 50, 100, 500, 1000, 5000, 10000 ng/mL) were added to 30 μL of the blank CD1 mouse plasma to achieve calibration standards of 0.5-1000 ng/mL (0.5, 1, 2, 5, 10, 50, 100, 500, 1000 ng/mL) in a total volume of 33 μL. Five quality control samples at 1 ng/mL, 2 ng/mL, 5 ng/mL, 50 ng/mL and 800 ng/mL for plasma were prepared independently of those used for the calibration curves. These QC samples were prepared on the day of analysis in the same way as calibration standards.
Next, 33 μL standards, 33 μL QC samples, and 33 μL unknown samples (30 μL plasma with 3 μL blank solution) were added to 200 μL of acetonitrile containing IS mixture for precipitating protein, respectively. Then the samples were vortexed for 30 s. After centrifugation at 4 degree Celsius, 4000 rpm for 15 min, 3 μL of supernatant was injected into the LC/MS/MS system for quantitative analysis.
HPLC analysis was performed using 100% water with 0.1% formic acid (Solution A) and 100% acetonitrile with 0.1% formic acid (Solution B) with a flow rate of 0.6 mL/min.
A NMP stock solution was prepared by adding 2.092 mL of NMP to 10.46 mg of […] with vortexing and sonification, to obtain a solution with a concentration at 5 mg/mL of […]. Next, to prepare an intravenous formulation, 0.100 mL of the 5 mg/mL stock solution was placed in a new vial. 0.100 mL of NMP and 0.400 mL of PEG400 were added with vortexing and sonification, followed by addition of 0.400 mL of saline with vortexing and sonification. […] 42320:01. Alternatively, to prepare an oral formulation, 0.200 mL of the 5 mg/mL stock solution was placed in a new vial. 0.400 mL of PEG400 was added with vortexing and sonification, followed by addition of 0.400 mL of saline with vortexing and sonifiction. […] 42320:01.
as §1, with “50 ng/mL,” for “50 ng/mL”

[1] = iv, 1 mg/kg, Table 3, IV Dose: 1 mg/kg, Mouse 1, read-out: Concentration
[2] = iv, 1 mg/kg, Table 3, IV Dose: 1 mg/kg, Mouse 2, read-out: Concentration
[3] = iv, 1 mg/kg, Table 3, IV Dose: 1 mg/kg, Mouse 3, read-out: Concentration
[4] = iv, 1 mg/kg, Table 3, IV Dose: 1 mg/kg, mean, read-out: Concentration, Mean
[5] = po, 5 mg/kg, Table 5, PO Dose: 5 mg/kg, Mouse 4, read-out: Concentration
[6] = po, 5 mg/kg, Table 5, PO Dose: 5 mg/kg, Mouse 5, read-out: Concentration
[7] = po, 5 mg/kg, Table 5, PO Dose: 5 mg/kg, Mouse 6, read-out: Concentration
[8] = po, 5 mg/kg, Table 5, PO Dose: 5 mg/kg, mean, read-out: Concentration, Mean

CNCc1ccc(C[C@H](NC(C)=O)c2nnc(-c3cccc(OC(F)(F)F)c3)s2)cc1 [Compound 42140, N-(2-(4-((methylamino)methyl)phenyl)-1-(5-(3-(trifluoromethoxy)phenyl)-1,3,4-thiadiazol-2-yl)ethyl)acetamide]
concentration at 5 min [1]: 96.6 ng/mL
concentration at 5 min [2]: 89.5 ng/mL
concentration at 5 min [3]: 86.3 ng/mL
concentration at 5 min [4]: 90.8 ng/mL
concentration at 0.25 h [1]: 81.5 ng/mL
concentration at 0.25 h [2]: 65 ng/mL
concentration at 0.25 h [3]: 74.2 ng/mL
concentration at 0.25 h [4]: 73.6 ng/mL
concentration at 0.5 h [1]: 57.2 ng/mL
concentration at 0.5 h [2]: 53.8 ng/mL
concentration at 0.5 h [3]: 48.1 ng/mL
concentration at 0.5 h [4]: 53 ng/mL
concentration at 1 h [1]: 57.8 ng/mL
concentration at 1 h [2]: 42.1 ng/mL
concentration at 1 h [3]: 43.7 ng/mL
concentration at 1 h [4]: 47.9 ng/mL
concentration at 2 h [1]: 43.7 ng/mL
concentration at 2 h [2]: 34.1 ng/mL
concentration at 2 h [3]: 39.9 ng/mL
concentration at 2 h [4]: 39.2 ng/mL
concentration at 4 h [1]: 26.1 ng/mL
concentration at 4 h [2]: 18.8 ng/mL
concentration at 4 h [3]: 23.3 ng/mL
concentration at 4 h [4]: 22.7 ng/mL
concentration at 8 h [1]: 16.9 ng/mL
concentration at 8 h [2]: 15.5 ng/mL
concentration at 8 h [3]: 14.9 ng/mL
concentration at 8 h [4]: 15.8 ng/mL
concentration at 24 h [1]: 6.4 ng/mL
concentration at 24 h [2]: 5.76 ng/mL
concentration at 24 h [3]: 4.27 ng/mL
concentration at 24 h [4]: 5.48 ng/mL
C0 (iv, 1 mg/kg, Mouse 1): 105 ng/mL
AUC(0-inf) (iv, 1 mg/kg, Mouse 1, read-out: AUCInf): 557 ng·h/mL
AUC(0-t) (iv, 1 mg/kg, Mouse 1, read-out: AUClast): 462 ng·h/mL
MRT inf (iv, 1 mg/kg, Mouse 1, read-out: MRTInf—obs): 12.1 h
half-life (iv, 1 mg/kg, Mouse 1, read-out: T1/2 (converted)): 10.3 h
Vd (iv, 1 mg/kg, Mouse 1, read-out: Vss—obs): 21.8 L/kg
C0 (iv, 1 mg/kg, Mouse 2): 105 ng/mL
AUC(0-inf) (iv, 1 mg/kg, Mouse 2, read-out: AUCInf): 486 ng·h/mL
AUC(0-t) (iv, 1 mg/kg, Mouse 2, read-out: AUClast): 389 ng·h/mL
MRT inf (iv, 1 mg/kg, Mouse 2, read-out: MRTInf—obs): 13.7 h
half-life (iv, 1 mg/kg, Mouse 2, read-out: T1/2 (converted)): 11.6 h
Vd (iv, 1 mg/kg, Mouse 2, read-out: Vss—obs): 28.1 L/kg
C0 (iv, 1 mg/kg, Mouse 3): 93 ng/mL
AUC(0-inf) (iv, 1 mg/kg, Mouse 3, read-out: AUCInf): 445 ng·h/mL
AUC(0-t) (iv, 1 mg/kg, Mouse 3, read-out: AUClast): 394 ng·h/mL
MRT inf (iv, 1 mg/kg, Mouse 3, read-out: MRTInf—obs): 9.69 h
half-life (iv, 1 mg/kg, Mouse 3, read-out: T1/2 (converted)): 8.36 h
Vd (iv, 1 mg/kg, Mouse 3, read-out: Vss—obs): 21.8 L/kg
AUC(0-inf) (iv, 1 mg/kg, mean, read-out: AUCInf, Mean): 496 ng·h/mL
AUC(0-t) (iv, 1 mg/kg, mean, read-out: AUClast, Mean): 415 ng·h/mL
MRT inf (iv, 1 mg/kg, mean, read-out: MRTInf—obs, Mean): 11.8 h
half-life (iv, 1 mg/kg, mean, read-out: T1/2, Mean (converted)): 10.1 h
Vd (iv, 1 mg/kg, mean, read-out: Vss—obs, Mean): 23.9 L/kg
concentration at 0.25 h [5]: 54.5 ng/mL
concentration at 0.25 h [6]: 60.6 ng/mL
concentration at 0.25 h [7]: 73.1 ng/mL
concentration at 0.25 h [8]: 62.7 ng/mL
concentration at 0.5 h [5]: 92.2 ng/mL
concentration at 0.5 h [6]: 91.9 ng/mL
concentration at 0.5 h [7]: 106 ng/mL
concentration at 0.5 h [8]: 97 ng/mL
concentration at 1 h [5]: 117 ng/mL
